Laboratory results: US10189836B2, “Therapeutic compounds, compositions and methods of use thereof” (Genentech, Inc., priority 2015, dated 2019)

How the values were obtained:
[1] = biological target: isolated recombinant JAK2 kinase domain (Homo sapiens (Human), UniProt O60674); test: JAK2 enzyme assay (Caliper LabChip, Ki); format: biochemical; conditions: isolated recombinant JAK2 kinase domain, 0.2 nM enzyme, ATP 25 μM
[2] = biological target: isolated recombinant JAK1 kinase domain (Homo sapiens (Human), UniProt P23458); test: JAK1 enzyme assay (Caliper LabChip, Ki); format: biochemical; conditions: isolated recombinant JAK1 kinase domain, 1.5 nM enzyme, ATP 25 μM
Sequence of isolated recombinant JAK1 kinase domain (P23458 875-1153): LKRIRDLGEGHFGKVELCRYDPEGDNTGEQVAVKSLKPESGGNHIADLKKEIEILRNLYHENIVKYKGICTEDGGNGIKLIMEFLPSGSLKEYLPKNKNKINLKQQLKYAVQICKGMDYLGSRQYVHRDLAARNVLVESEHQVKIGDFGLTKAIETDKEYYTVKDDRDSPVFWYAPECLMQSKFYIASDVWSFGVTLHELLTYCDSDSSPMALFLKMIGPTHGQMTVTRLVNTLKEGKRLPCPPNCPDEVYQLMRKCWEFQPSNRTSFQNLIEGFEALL

Sequence of isolated recombinant JAK2 kinase domain (O60674 849-1124): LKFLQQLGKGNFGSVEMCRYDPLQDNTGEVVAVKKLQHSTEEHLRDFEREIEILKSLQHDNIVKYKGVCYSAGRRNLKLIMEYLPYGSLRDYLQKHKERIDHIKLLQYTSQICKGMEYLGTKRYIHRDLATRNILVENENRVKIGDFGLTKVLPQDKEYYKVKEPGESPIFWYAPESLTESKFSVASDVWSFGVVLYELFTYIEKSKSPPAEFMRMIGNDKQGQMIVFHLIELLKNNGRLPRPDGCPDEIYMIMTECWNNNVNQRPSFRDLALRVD

Row | SMILES | Ki [1] [nM] | Ki [2] [nM]
1 | O=C(Cn1cc(Nc2nc3c(N4CC5CCC(C4)N5C(=O)N4CC(C(F)(F)F)C4)cccn3n2)cn1)N1CCN(C2CSC2)CC1 [Example 94, 1-[4-(thietan-3-yl)piperazin-1-yl]-2-[4-[[8-[8-[3-(trifluoromethyl)azetidine-1-carbonyl]-3,8-diazabicyclo[3.2.1]octan-3-yl]-[1,2,4]triazolo[1,5-a]pyridin-2-yl]amino]pyrazol-1-yl]ethanone] | 0.4 | 0.6
2 | CN1CCN(C(=O)Cn2cc(Nc3nc4c(N5CC6CCC(C5)N6S(=O)(=O)Cc5cccc(F)c5)cccn4n3)cn2)CC1 [Example 159, 2-[4-[[8-[8-[(3-fluorophenyl)methylsulfonyl]-3,8-diazabicyclo[3.2.1]octan-3-yl]-[1,2,4]triazolo[1,5-a]pyridin-2-yl]amino]pyrazol-1-yl]-1-(4-methylpiperazin-1-yl)ethanone] | 2.9 | 0.7
3 | CN1CCN(C(=O)Cn2cc(Nc3nc4c(N5CC6CCC(C5)N6C(=O)C5C6CC(F)(F)CC65)cccn4n3)cn2)CC1 (centres unmarked) [Example 49, 2-[4-[[8-[8-(3,3-difluorobicyclo[3.1.0]hexane-6-carbonyl)-3,8-diazabicyclo[3.2.1]octan-3-yl]-[1,2,4]triazolo[1,5-a]pyridin-2-yl]amino]pyrazol-1-yl]-1-(4-methylpiperazin-1-yl)ethanone] | 4.1 | 1.5
4 | CSC1CCN(C(=O)N2C3CCC2CN(c2cccn4nc(Nc5cnn(CC(=O)N6CCN(C)CC6)c5)nc24)C3)C1 (centres unmarked) [Example 172, 1-(4-methylpiperazin-1-yl)-2-[4-[[8-[8-(3-methylsulfanylpyrrolidine-1-carbonyl)-3,8-diazabicyclo[3.2.1]octan-3-yl]-[1,2,4]triazolo[1,5-a]pyridin-2-yl]amino]pyrazol-1-yl]ethanone] | 0.9 | 0.6
5 | CN1CCN(C(=O)Cn2cc(Nc3nc4c(N5CC6CCC(C5)N6C(=O)c5cccc(C#N)c5)cccn4n3)cn2)CC1 [Example 199, 3-[3-[2-[[1-[2-(4-methylpiperazin-1-yl)-2-oxo-ethyl]pyrazol-4-yl]amino]-[1,2,4]triazolo[1,5-a]pyridin-8-yl]-3,8-diazabicyclo[3.2.1]octane-8-carbonyl]benzonitrile] | 2.1 | 1.3
6 | CC(C(=O)N1CCN(C)CC1)n1cc(Nc2nc3c(N4CC5CCC(C4)N5C(=O)C4CC(C(F)(F)F)C4)cccn3n2)cn1 (centres unmarked) [Example 124, 1-(4-methylpiperazin-1-yl)-2-[4-[[8-[8-(3-(trifluoromethyl)-cyclobutanecarbonyl]-3,8-diazabicyclo[3.2.1]octan-3-yl]-[1,2,4]triazolo[1,5-a]pyridin-2-yl]amino]pyrazol-1-yl]propan-1-one] | 3.7 | 1.9
7 | CN1CCN(C(=O)Cn2cc(Nc3nc4c(N5C[C@H]6CC[C@@H](C5)[C@H]6N(C)C(=O)CC(F)(F)F)cccn4n3)cn2)CC1 [Example 164, 3,3,3-trifluoro-N-methyl-N-[rac-(1S,5R)-3-[2-[[1-[2-(4-methylpiperazin-1-yl)-2-oxo-ethyl]pyrazol-4-yl]amino]-[1,2,4]triazolo[1,5-a]pyridin-8-yl]-3-azabicyclo[3.2.1]octan-8-yl]propanamide] | 1 | 0.7
8 | N#CC1(CNC2CCN(C(=O)Cn3cc(Nc4nc5c(N6CC7CCC(C6)N7C(=O)C6CC(C(F)(F)F)C6)cccn5n4)cn3)CC2)CC1 (centres unmarked) [Example 190, 1-[[[1-[2-[4-[[8-[8-[3-(trifluoromethyl)cyclo-butanecarbonyl]-3,8-diazabicyclo[3.2.1]octan-3-yl]-[1,2,4]triazolo[1,5-a]pyridin-2-yl]amino]pyrazol-1-yl]acetyl]-4-piperidyl]amino]methyl]-cyclopropanecarbonitrile] | 1.8 | 1
9 | CN1CCN(C(=O)Cn2cc(Nc3nc4c(N5CC6CCC(C5)N6Cc5cccc(C#N)c5)cccn4n3)cn2)CC1 [Example 55, 3-[[3-[2-[[1-[2-(4-methylpiperazin-1-yl)-2-oxo-ethyl]pyrazol-4-yl]amino]-[1,2,4]triazolo[1,5-a]pyridin-8-yl]-3,8-diazabicyclo[3.2.1]octan-8-yl]methyl]benzonitrile] | 4 | 1.9
10 | Cc1ncc(S(=O)(=O)N2C3CCC2CN(c2cccn4nc(Nc5cnn(CC(=O)N6CCN(C)CC6)c5)nc24)C3)s1 [Example 138, 1-(4-methylpiperazin-1-yl)-2-[4-[[8-[8-(2-methylthiazol-5-yl)sulfonyl-3,8-diazabicyclo[3.2.1]octan-3-yl]-[1,2,4]triazolo[1,5-a]pyridin-2-yl]amino]pyrazol-1-yl]ethanone] | 0.8 | 0.7
11 | CN1CCN(C(=O)Cn2cc(Nc3nc4c(N5CC6CCC(C5)N6C(=O)[C@H]5C[C@@H](C(F)(F)F)C5)cccn4n3)cn2)CC1 [Example 15, formic acid; 1-(4-methylpiperazin-1-yl)-2-[4-[[8-[8-[3-(trifluoromethyl)cyclobutanecarbonyl]-3,8-diazabicyclo[3.2.1]octan-3-yl]-[1,2,4]triazolo[1,5-a]pyridin-2-yl]amino]pyrazol-1-yl]ethanone] | 3.7 | 1.1
12 | CSc1ccc(S(=O)(=O)N2C3CCC2CN(c2cccn4nc(Nc5cnn(CC(=O)N6CCN(C)CC6)c5)nc24)C3)cc1 [Example 107, 1-(4-methylpiperazin-1-yl)-2-[4-[[8-[8-(4-methylsulfanylphenyl)-sulfonyl-3,8-diazabicyclo[3.2.1]octan-3-yl]-[1,2,4]triazolo[1,5-a]pyridin-2-yl]amino]pyrazol-1-yl]ethanone] | 0.8 | 0.4
13 | CN1CCN(C(=O)Cn2cc(Nc3nc4c(N5CC6CCC(C5)N6C(=O)CC(F)(F)F)cccn4n3)cn2)CC1 [Example 12, 3,3,3-trifluoro-1-[3-[2-[[1-[2-(4-methylpiperazin-1-yl)-2-oxo-ethyl]pyrazol-4-yl]amino]-[1,2,4]triazolo[1,5-a]pyridin-8-yl]-3,8-diazabicyclo[3.2.1]octan-8-yl]propan-1-one] | 1.7 | 0.7
14 | CN1CCN(C(=O)Cn2cc(Nc3nc4c(N5CC6CCC(C5)N6C(=O)NCC(F)(F)F)cccn4n3)cn2)CC1 [Example 110, 3-[2-[[1-[2-(4-methylpiperazin-1-yl)-2-oxo-ethyl]pyrazol-4-yl]amino]-[1,2,4]triazolo[1,5-a]pyridin-8-yl]-N-(2,2,2-trifluoroethyl)-3,8-diazabicyclo[3.2.1]octane-8-carboxamide] | 3.4 | 0.9
15 | CN1CCN(C(=O)Cn2cc(Nc3nc4c(N5CC6CCC(C5)N6C(=O)CC5CC5(F)F)cccn4n3)cn2)CC1 (centres unmarked) [Example 16, 2-(2,2-difluorocyclopropyl)-1-[3-[2-[[1-[2-(4-methylpiperazin-1-yl)-2-oxo-ethyl]pyrazol-4-yl]amino]-[1,2,4]triazolo[1,5-a]pyridin-8-yl]-3,8-diazabicyclo[3.2.1]octan-8-yl]ethanone] | 1.8 | 1
16 | CN1CCN(C(=O)Cn2cc(Nc3nc4c(N5CC6CCC(C5)N6C(=O)N5CCC(C(F)(F)F)C5)cccn4n3)cn2)CC1 (centres unmarked) [Example 181, 1-(4-methylpiperazin-1-yl)-2-[4-[[8-[8-(3-(trifluoromethyl)pyrrolidine-1-carbonyl]-3,8-diazabicyclo[3.2.1]octan-3-yl]-[1,2,4]triazolo[1,5-a]pyridin-2-yl]amino]pyrazol-1-yl]ethanone] | 1.3 | 0.8
17 | CN1CCN(C(=O)Cn2cc(Nc3nc4c(N5CC6CCC(C5)N6C(=O)C5CC5(F)F)cccn4n3)cn2)CC1 (centres unmarked) [Example 37, 2-[4-[[8-[8-(2,2-difluorocyclopropanecarbonyl)-3,8-diazabicyclo[3.2.1]octan-3-yl]-[1,2,4]triazolo[1,5-a]pyridin-2-yl]amino]pyrazol-1-yl]-1-(4-methylpiperazin-1-yl)ethanone] | 1.8 | 1.3
18 | CN1CCN(C(=O)Cn2cc(Nc3nc4c(N5CC6CCC(C5)N6C(=O)C5CC(F)(F)C5)cccn4n3)cn2)CC1 [Example 46, 2-[4-[[8-[8-(3,3-difluorocyclobutanecarbonyl)-3-yl]-3,8-diazabicyclo[3.2.1]octan-[1,2,4]triazolo[1,5-a]pyridin-2-yl]amino]pyrazol-1-yl]-1-(4-methylpiperazin-1-yl)ethanone] | 1.7 | 1.4
19 | O=C(Cn1cc(Nc2nc3c(N4CC5CCC(C4)N5C(=O)CCC(F)(F)F)cccn3n2)cn1)N1CCN(C2CCCCC2)CC1 [Example 153, 1-[3-[2-[[1-[2-(4-cyclohexylpiperazin-1-yl)-2-oxo-ethyl]pyrazol-4-yl]amino]-[1,2,4]triazolo[1,5-a]pyridin-8-yl]-3,8-diazabicyclo[3.2.1]octan-8-yl]-4,4,4-trifluoro-butan-1-one] | 0.3 | 0.2
20 | CN1CCN(C(=O)Cn2cc(Nc3nc4c(N5CC6CCC(C5)N6C(=O)N5CC(C(F)(F)F)C5)cccn4n3)cn2)CC1 [Example 2, 1-(4-methylpiperazin-1-yl)-2-[4-[[8-[8-[3-(trifluoromethyl)azetidine-1-carbonyl]-3,8-diazabicyclo[3.2.1]octan-3-yl]-[1,2,4]triazolo[1,5-a]pyridin-2-yl]amino]pyrazol-1-yl]ethanone] | 0.4 | 0.5
21 | CN1CCN(C(=O)Cn2cc(Nc3nc4c(N5CC6CCC(C5)N6C(=O)Cc5ccccc5F)cccn4n3)cn2)CC1 [Example 64, 2-(2-fluorophenyl)-1-[3-[2-[[1-[2-(4-methylpiperazin-1-yl)-2-oxo-ethyl]pyrazol-4-yl]amino]-[1,2,4]triazolo[1,5-a]pyridin-8-yl]-3,8-diazabicyclo[3.2.1]octan-8-yl]ethanone] | 7.2 | 1.9
22 | CN1CCN(C(=O)Cn2cc(Nc3nc4c(N5CC6CCC(C5)N6C(=O)c5cccs5)cccn4n3)cn2)CC1 [Example 76, 1-(4-methylpiperazin-1-yl)-2-[4-[[8-[8-(thiophene-2-carbonyl)-3,8-diazabicyclo[3.2.1]octan-3-yl]-[1,2,4]triazolo[1,5-a]pyridin-2-yl]amino]pyrazol-1-yl]ethanone] | 1.3 | 0.8
